Assay results: patent US5391800A, “Method for inhibition of cell motility by sphingosine-1-phosphate, its derivatives and mimetics and method of synthesizing sphingosine-1-phosphate and its derivatives” (The Biomembrane Institute, priority 1993, dated 1995)

What was measured:
[1] = system: PKC of B16/F1 melanoma cells; experiment: PKC activity of B16/F1 melanoma cells (32P incorporation into histone IIIS); format: biochemical, mouse; details: concentration not given
Experimental: Effects of SPN derivatives on protein kinase C activity and cell growth of B16/F1 cells was also investigated. […] Toxicity of these compounds to B16/F1 cells and human neutrophils was also examined using a trypan blue exclusion assay after 1 hour incubation with the compounds.
*Mean ± S.E. (n = 3). For controls (defined as 100%), PKC activity was
33225 cpm per tube per 20 min, as measured by ^32 P incorporation int

B16/F1 melanoma cells [2] = experiment: Growth of B16/F1 melanoma cells (cell count after 48 hr); format: cell-based, mouse; details: Mus musculus, B16-F1; 10 μM; 48 hr; control = 100%; mean ± S.E., n = 3
Experimental: *Mean ± S.E. (n = 3). For controls (defined as 100%), cell number was
10^5 cells were seeded and
cultured on a 35 mm plastic dish in Dulbecco's modified Eagle's medium
containing 2% fetal bovine serum in the presence or absence of SPN
derivatives. 48 hr later, cells were counted.

B16/F1 melanoma cells [3] = experiment: Chemoinvasion of B16/F1 cells through thick MATRI-GEL layer on transwell filter; format: cell-based, mouse; details: percent relative to control; mean ± S.E., n = 3 or 4; concentration not given; 4200 min
Experimental: (§1) The assays for determining chemotactic cell motility and chemoinvasion can be performed using transwell plates with a polycarbonate membrane filter (pore size 8 μm) (Costar Scientific, Cambridge, Mass.). Aliguots, e.g., 50 μl, of an aqueous solution of MATRI-GEL (Collaborative Research, Bedford, Mass.) containing SPN-1-P or other inhibitor (e.g., 20 μg/ml for chemotactic motility assay or 200 μg/ml for chemoinvasion assay), is added to each well and dried overnight. The filter is then fitted onto the lower chamber plate. The lower chamber can contain conditioned medium (CM) (i.e., medium used for splenic stromal cell culture, and containing motility factor secreted by these cells), e.g., 0.6 ml, with or without SPN-1-P or other inhibitor. To the upper chamber is added, e.g., about 100 μl, of cell suspension (5×10^4 cells/ml for invasion assay, 5×10^5 cells/ml for motility assay), which is then incubated in 5% CO2 at 37° C. for 70-72 hours (invasion assay) or 20 hours (motility assay). After incubation, cells remaining in the upper chamber are wiped off with a cotton swab, and cells which had migrated to the lower chamber side of the filter are fixed in methanol for 30 seconds and stained with 0.05% toluidine blue. The filter is removed, the stain is solubilized in 10% acetic acid (e.g., 0.1 ml for invasion assay, 0.5 ml for motility assay), and color intensity (optical density) is quantitated by ELISA reading at 630 nm. Using SPN-1-P, a linear relationship was observed between cell number and toluidine blue optical density (FIG. 7).
(§2) Assays were performed using transwell plates with polycarbonate membrane filters (pore size 8 μm) (Costar Scientific, Cambridge, Mass.). 50 μl aliguots of an aqueous solution of MATRI-GEL (Collaborative Research, Bedford, Mass.) containing 20 μg/ml (for chemotactic motility assay) or 200 μg/ml (for chemoinvasion assay) were added to each well and dried overnight. The filter was fitted onto the lower chamber plate. The lower chamber contained 0.6 ml conditioned medium (CM) (i.e., medium used for splenic stromal cell culture, and containing motility factor secreted by these cells) with or without the suspected inhibitor. To the upper chamber was added 100 μl of cell suspension (5×10^4 cells/ml for invasion assay, 5×10^5 cells/ml for motility assay), which was then incubated in 5% CO2 at 37° C. for 70-72 hours (invasion assay) or 20 hours (motility assay). After incubation, cells remaining in the upper chamber were wiped off with a cotton swab, and cells which had migrated to the lower chamber side of the filter were fixed in methanol for 30 seconds and stained with 0.05% toluidine blue. The filter was removed, the stain was solubilized in 10% acetic acid (0.1 ml for invasion assay, 0.5 ml for motility assay), and color intensity (optical density) was quantitated by ELISA reading at 630 nm. A linear relationship was observed between cell number and toluidine blue optical density (FIG. 7.).
Chemoinvasion was measured by the ability of tumor cells in CM (as described above) to migrate through a thick layer of MATRI-GEL during a prolonged incubation period (70 hours). This property is distinct from chemotactic cell motility, which involves a much shorter incubation period (20 hours) and a thin layer of MATRI-GEL. For the chemoinvasion assay, 10 μg of MATRI-GEL was applied to a polycarbonate transwell filter and migration was observed following 70 hours incubation (based on results shown in FIG. 8).

B16/F1 melanoma cells [4] = experiment: Chemotactic motility of B16/F1 cells through MATRI-GEL-coated transwell filter; format: cell-based, mouse; details: percent relative to control; mean ± S.E., n = 3 or 4; concentration not given
Experimental: as §1, §2
In experiments with different quantities of MATRI-GEL, cell migration through transwell filter was maximal with 1 μg/well was applied, and when CM was used (FIG. 8). Therefore, chemotactic cell motility, as affected by various SPN derivatives, was assayed under these conditions.
*Mean ± S.E. of percent relative to control (n = 4). Actual O.D. value
and 0.147 (HT1080). 6 × 10^4 cells were placed on a transwell
filter coated with 1.0 μg MATRIGEL in the upper chamber, and cultured
for 18 hours in the presence of CM and SPN1-P in the lower chamber.

human neutrophils = experiment: Phagokinetic activity of human neutrophils on gold sol-coated plates; format: cell-based; details: 4.5 μM; 2 hours; mean ± S.D.; control 6.3 ± 2.3
Experimental: Phagokinetic activity is measured by the ability of cells to ingest foreign particles while moving. Cell motility can be estimated as the area of a phagokinetic track on gold sol particle-coated plates as previously described {Albrecht-Buehler, Cell, 11:395 (1977)}. A uniform coating of gold particles is prepared on glass coverslips precoated with bovine serum albumin, and coverslips are rinsed repeatedly to remove non-adhering or loosely-adhering gold particles. Freshly-prepared neutrophils or tumor cells detached from culture are placed in a Petri dish containing the gold sol-coated plate, and incubated for about 2 hours (for human neutrophils) or about 18 hours (for tumor cells). The coverslips are fixed for 1 hour in a 4% formaldehyde solution in phosphate-buffered saline (PBS) and mounted on microscope slides. The phagokinetic tracks are observed on a television connected to a light microscope (Nikon, Tokyo, Japan). Tracks on the television are transferred to translucent sheets, which are then photocopied. Phagokinetic activity is quantitated by cutting and weighing the swept area in the copy.
Cell motility was estimated as the area of phagokinetic track on gold sol particle-coated plates as previously described {Albrecht-Buehler, Cell, 11:395 (1977)}. A uniform coating of gold particles was prepared on glass coverslips precoated with bovine serum albumin, and the coverslips were rinsed repeatedly to remove non-adhering or loosely-adhering gold particles. Freshly-prepared neutrophils or tumor cells detached from culture were placed in a Petri dish containing the gold sol-coated plate, and incubated for 2 hours (for human neutrophils) or 18 hours (for tumor cells). The coverslips were fixed for 1 hour in 4% formaldehyde solution in phosphate-buffered saline (PBS) and mounted on microscope slides. The phagokinetic tracks were observed on a television connected to a light microscope (Nikon, Tokyo, Japan). Tracks on the television were transferred to translucent sheets, which were then photocopied. Phagokinetic activity was quantitated by cutting and weighing the swept area in the copy.
**mean ± S.D. Freshlyprepared neutrophils (1 × 10^4
cell/plate) were seeded on a coverslip precoated with gold sol particles
in the presence or absence of test compound. 2 hours later, incubation wa
terminated by adding 200 μl of 10% formaldehyde and the cleared area
was estimated as described in the text.

| Molecule | PKC inhibition [1] | activity at 10 µM (B16/F1 melanoma cells [2]) | % invasion (B16/F1 melanoma cells [3]) | % motility (B16/F1 melanoma cells [4]) | Cleared area (human neutrophils) |
| --- | --- | --- | --- | --- | --- |
| CCCCCCCCCCCCC/C=C/[C@@H](O)[C@H](CO)N(C)C [DMS, N,N-dimethylsphingosine] | in striking contrast to DMS and TMS, SPN-1-P does not inhibit PKC |  |  |  |  |
| CCCCCCCCCCCCC/C=C/[C@@H](O)[C@H](CO)NC(C)=O [N-acetyl-SPN] |  | 102 ± 4% | 96 ± 14% | 99 ± 16% |  |
| NCCO [ethanolamine] |  |  | 140 ± 41% | 85 ± 13% |  |
| NCCOP(=O)(O)O [phosphoethanolamine] |  |  | 160 ± 57% | 86 ± 20% | 5.9 ± 2.5 × 10^3 μm^2 |
| ceramide |  |  |  |  | 5.7 ± 3.0 × 10^3 μm^2 |
| ceramide monohexoside [CMH] |  |  | 178 ± 70% | 162 ± 29% |  |
| phosphatidylethanolamine |  |  | 104 ± 37% | 107 ± 18% |  |
| sphingomyelin |  |  | 138 ± 18% | 82 ± 11% |  |
